By melting point is commonly meant the temperature of the solid-liquid transition.

Take `COc1cc(CC(=O)N(C)CCOc2ccc(C(=O)O)cc2NC(C)C)ccc1NC(=O)Nc1ccccc1F` [Compound 279, 3-isopropylamino-4-[[2-[3-methoxy-4-[N′-(2-fluorophenyl)ureido]phenylacetyl]methylamino]ethoxy]benzoic acid]: the melting point fell in the range of 195 to 200 °C.
The same measure for `COc1cc(CC(=O)N[C@@H](C)COc2ccc(C(=O)O)cc2Cl)ccc1NC(=O)Nc1ccccc1F` [Compound 281, (S)-3-chloro-4-[2-[3-methoxy-4-[N′-(2-fluorophenyl)ureido]phenylacetylamino]-1-propoxy]benzoic acid]: 188 to 191 °C.
In the case of `COc1cc(CC(=O)N(C)CCNc2ccc(C(=O)O)cc2)ccc1NC(=O)Nc1ccccc1C` [Compound 282, 4-[[2-[3-methoxy-4-[N′-(2-methylphenyl)ureido]phenylacetyl]methylamino]ethylamino]benzoic acid] it was 115 to 120 °C; in that of `COc1cc(CC(=O)N(C)[C@@H](C)COc2ccc(C(=O)O)cc2Cl)ccc1NC(=O)Nc1ccccc1F` [Compound 283, (S)-3-chloro-4-[2-[N-methyl-N-[3-methoxy-4-[N′-(2-fluorophenyl)ureido]phenylacetyl]amino]-1-propoxy]benzoic acid], 142 to 147 °C.
For `COc1cc(CC(=O)N(C)[C@@H](C)COc2ccc(C(=O)O)cc2Cl)ccc1NC(=O)Nc1ccccc1C` [Compound 284], the melting point was 125 to 130 °C.
`COc1cc(CC(=O)N(C)CCOc2ccc(C(=O)O)cc2NC(C)C)ccc1NC(=O)Nc1ccccc1C` [Compound 285, 3-isopropylamino-4-[[2-[3-methoxy-4-[′-(2-methylphenyl)ureido]phenylacetyl]methylamino]ethoxy]benzoic acid] returned a melting point of 130 to 135 °C.
In the case of `COc1cc(CC(=O)N(C)CCN(C)c2ccc(C(=O)O)cc2)ccc1NC(=O)Nc1ccccc1C` [Compound 286, 4-[[2-[3-methoxy-4-[N′-(2-methylphenyl)ureido]phenylacetyl]methylamino]ethyl]methylamino benzoic acid] it was 125 to 130 °C; in that of `COc1cc(CC(=O)N(Cc2ccccc2)[C@@H](C)COc2ccc(C(=O)O)cc2Cl)ccc1NC(=O)Nc1ccccc1F` [Compound 287, (S)-3-chloro-4-[2-[N-benzyl-N-[3-methoxy-4-[N′-(2-fluorophenyl)ureido]phenylacetyl]amino]-1-propoxy]benzoic acid], 125 to 130 °C.
In the case of `COc1cc(CC(=O)N(C)CCOc2ccc(C(=O)O)cc2N(C)C(C)C)ccc1NC(=O)Nc1ccccc1C` [Compound 288, 3-(N-isopropyl-N-methylamino)-4-[[2-[3-methoxy-4-[N′-(2-methylphenyl)ureido]phenylacetyl]methylamino]ethoxy]benzoic acid] it was 130 to 135 °C; in that of `COc1cc(CC(=O)N(C)CCOc2ccc(C(=O)O)cc2N2CCCCC2)ccc1NC(=O)Nc1ccccc1F` [Compound 289, 3-(1-piperidinyl)-4-[[2-[3-methoxy-4-[N′-(2-fluorophenyl)ureido]phenylacetyl]methylamino]ethoxy]benzoic acid], 125 to 130 °C; in that of `COc1cc(CC(=O)N(C)CCOc2ccc(C(=O)O)cc2N)ccc1NC(=O)Nc1ccccc1C` [Compound 290, 3-amino-4-[[2-[3-methoxy-4-[N′-(2-methylphenyl)ureido]phenylacetyl]methylamino]ethoxy]benzoic acid], 125 to 130 °C.
`COc1cc(CC(=O)N(C)CCOc2ccc(C(=O)O)cc2N2CCCCC2)ccc1NC(=O)Nc1ccccc1C` [Compound 291, 3-(1-piperidinyl)-4-[[2-[3-methoxy-4-[N′-(2-methylphenyl)ureido]phenylacetyl]methylamino]ethoxy]benzoic acid]: the melting point lay within 120 to 125 °C.

(Values after US7179819B2, “VLA-4 inhibitor compounds” (Daiichi Pharmaceutical Co., Ltd., priority 1999, dated 2007).)
